The values that follow come from US20070049564A1 (Wyeth, priority 2005, published 2007).

Molecules are shown by their SMILES. In brackets after ≈: the same amount, converted by molar mass. Where two headings read alike, the source gives them in different places.

One series relates to Staph. aureus Smith. Description: In vitro activity (MIC) against Staph. aureus Smith. Format: cell-based. As to conditions: Staphylococcus aureus.
Another series has as its system S. cholerasius GC 1355. The experiment in a line: MIC, broth microdilution. As to conditions: S. cholerasius GC 1355. In general terms: Dilution methods test growth across graded concentrations, often in twofold steps.
Another series relates to Salmonella spp. GC 235. The experiment in a line: MIC, broth microdilution. As to conditions: Salmonella, SPP.GC235, Salmonella spp. GC 235.
A short description of series [1]: Pharmacokinetics in monkey, IV 2 mg/kg and oral 10 mg/kg. Format: in vivo. As to conditions: Oral - MONKEY 10 mg/kg.
A further series concerns Salmonella spp. GC 566. Description: MIC, broth microdilution. As to conditions: Salmonella, SPP.GC566, Salmonella spp. GC 566.
The subject of the next series is E. coli #311. The experiment in a line: In vivo activity (oral, iv; ED50) against E. coli in mice. As to conditions: Escherichia coli. An excerpt: . […] Smith and E. Coli #311 in mammals.
Results of the tests (MIC, oral and IV) are list in Table 7.

The next series has as its system E. coli. The experiment in a line: In vitro activity (MIC) against E. coli (Table 7). Format: cell-based. As to conditions: Escherichia coli.
Series [2] relates to E. coli, tet (M,S,O) Tet (M). Description: In vitro activity (MIC), strain groups. As to conditions: Human Serum.
Experimental: (§1) Antimicrobial susceptibility testing. The in vitro activities of the antibiotics are determined by the broth microdilution method as recommended by the National Committee for Clinical Laboratory Standards (NCCLS) (1). Mueller-Hinton II broth (MHBII)(BBL Cockeysville, Md.) is the medium employed in the testing procedures. Microtiter plates containing serial dilutions of each antimicrobial agent are inoculated with each organism to yield the appropriate density (10^5 CFU/ml) in a 100 μl final volume. The plates are incubated for 18-22 hours at 35° C. in ambient air.
(§2) Presented in Tables I-XIII are representative compounds of Formula I which were evaluated against a panel of 40 selected gram-positive and gram-negative bacteria strains by pre-incubation in water, mouse serum or human serum. Representative compounds were first incubated in mouse serum for an hour prior to the in vitro testing against a panel of selected gram-positive and gram-negative bacteria strains. All compounds were also pre-incubated in water for an hour prior to testing as control. Representative compounds of Formula I were incubated in human serum prior to MIC determination.
The test system of series [3] is E. coli, tet(A-D), efflux. The experiment in a line: In vitro activity (MIC), strain groups.
Experimental: as §1
Representative compounds were first incubated in mouse serum for an hour prior to the in vitro testing against a panel of selected gram-positive and gram-negative bacteria strains. All compounds were also pre-incubated in water for an hour prior to testing as control. Representative compounds of Formula I were incubated in human serum prior to MIC determination.
A further series deals with Streptococcus spp. Description: In vitro activity (MIC), strain groups. Details: MIC: unit not given beside the values.
For another series, the system named is Enterococcus spp. The experiment in a line: In vitro activity (MIC), strain groups. More on the design: MIC: unit not given beside the values.
The mark [4] stands for this setting: single intravenous dose, mice, Table 7, read-out: ED50 SIV (E. coli).
Where [5] appears, read: single oral dose, mice, Table 7, read-out: ED50 SOD (E. coli).
Setting [6] is: single intravenous dose (SIV), read-out: ED50 E. coli #311 SIV.
Setting [7] is: single oral dose (SOD), read-out: ED50 E. coli #311 SOD.

Experimental for Enterococcus spp.: as §1, §2
Experimental for S. cholerasius GC 1355: as §1, §2
Experimental for Salmonella spp. GC 566: as §1, §2
Experimental for Streptococcus spp.: as §1, §2

As usually defined, the MIC is the lowest concentration that inhibits growth of the organism. On to `CCCCN(CC(=O)Nc1cc(N(C)C)c2c(c1O)C(=O)C1=C(O)[C@]3(O)C(=O)C(C(N)=O)=C(O)[C@@H](N(C)C)C3CC1C2)C(=O)OCOC(=O)C(C)C` (stereo partly drawn) [Example 1, ({[(2-{[(7S,10aS)-9-(aminocarbonyl)-4,7-bis(dimethylamino)-1,8,10a,11-tetrahydroxy-10,12-dioxo-5,5a,6,6a,7,10,10a,12-octahydrotetracen-2-yl]amino}-2-oxoethyl)(butyl)amino]carbonyl}oxy)methyl 2-methylpropanoate], for which the minimal inhibitory concentration (MIC) is 4 µg/mL (≈ 5.48 µM) against Staph. aureus Smith (Table 8); 8 µg/mL (≈ 11 µM) in the series on S. cholerasius GC 1355 (Mouse Serum pre-incubation); > 64 µg/mL against S. cholerasius GC 1355 (Water pre-incubation); 1 µg/mL (≈ 1.37 µM) against Salmonella spp. GC 235 (Mouse Serum pre-incubation); 64 µg/mL (≈ 87.7 µM) in the series with Salmonella spp. GC 235 (Water pre-incubation); 2 µg/mL (≈ 2.74 µM) against Salmonella spp. GC 566 (Mouse Serum pre-incubation). Besides, 64 µg/mL (≈ 87.7 µM) was the least that counted as inhibitory with Salmonella spp. GC 566 (Water pre-incubation) (MIC). The Cmax entry in series [1] is “no levels detected”.

The term ED50 denotes the dose at which the effect has come halfway, by size or by number of responders. Turning to `CCCN(CC(=O)Nc1cc(N(C)C)c2c(c1O)C(=O)C1=C(O)[C@]3(O)C(=O)C(C(N)=O)=C(O)[C@@H](N(C)C)[C@@H]3C[C@@H]1C2)C(=O)OCOC(=O)c1ccc(C)cc1` [Example 5, ({[(2-{[(5aR,6aS,7S,10aS)-9-(aminocarbonyl)-4,7-bis(dimethylamino)-1,8,10a,11-tetrahydroxy-10,12-dioxo-5,5a,6,6a,7,10,10a,12-octahydrotetracen-2-yl]amino}-2-oxoethyl)(propyl)amino]carbonyl}oxy)methyl 4-methylbenzoate], the MIC is 1 µg/mL (≈ 1.31 µM) with Staph. aureus Smith (Table 8); 16 µg/mL (≈ 20.9 µM) against S. cholerasius GC 1355 (Mouse Serum pre-incubation); > 64 µg/mL in the series on S. cholerasius GC 1355 (Water pre-incubation); 2 µg/mL (≈ 2.62 µM) in the series on Salmonella spp. GC 235 (Mouse Serum pre-incubation); 32 µg/mL (≈ 41.9 µM) in the series on Salmonella spp. GC 235 (Water pre-incubation); > 64 µg/mL in the series with E. coli. In addition, the MIC was determined as 4 µg/mL (≈ 5.24 µM) against Salmonella spp. GC 566 (Mouse Serum pre-incubation) and 64 µg/mL (≈ 83.8 µM) with Salmonella spp. GC 566 (Water pre-incubation). Further, the ED50 in the series with E. coli #311 (setting [4]) was 3.17 mg/kg; in the series on E. coli #311 (setting [5]) it was > 64 mg/kg.

For `CCCN(CC(=O)Nc1cc(N(C)C)c2c(c1O)C(=O)C1=C(O)[C@]3(O)C(=O)C(C(N)=O)=C(O)[C@@H](N(C)C)[C@@H]3C[C@@H]1C2)C(=O)OCOC(=O)c1ccsc1` [Example 27, ({[(2-{[(5aR,6aS,7S,10aS)-9-(aminocarbonyl)-4,7-bis(dimethylamino)-1,8,10a,11-tetrahydroxy-10,12-dioxo-5,5a,6,6a,7,10,10a,12-octahydrotetracen-2-yl]amino}-2-oxoethyl)(propyl)amino]carbonyl}oxy)methyl thiophene-3-carboxylate], the MIC in series [2] is 4-8; in series [3] (Human Serum), 4-16; in series [3] (Mouse Serum) it was 0.5-1; in the series with Staph. aureus Smith (Table 8), 0.12 µg/mL (≈ 0.159 µM); in the series on Streptococcus spp. (Human Serum), 0.12-2; in the series with Streptococcus spp. (Mouse Serum), <0.06-0.12. In addition, the MIC is on record as <0.06-0.12 against Streptococcus spp. (water), 0.5-2 against Enterococcus spp. (Human Serum), 0.12-1 against Enterococcus spp. (Mouse Serum) and 0.12-1 in the series on Enterococcus spp. (water). Also, the results for the ED50 with E. coli #311 (setting [6]) and with E. coli #311 (setting [7]) were > 2 mg/kg and > 32 mg/kg, respectively.

On to `CC(C)CC(=O)OCOC(=O)N(CC(=O)Nc1cc(N(C)C)c2c(c1O)C(=O)C1=C(O)[C@]3(O)C(=O)C(C(N)=O)=C(O)[C@@H](N(C)C)[C@@H]3C[C@@H]1C2)C(C)(C)C` [Example 53, ({[(2-{[(5aR,6aS,7S,10aS)-9-(aminocarbonyl)-4,7-bis(dimethylamino)-1,8,10a,11-tetrahydroxy-10,12-dioxo-5,5a,6,6a,7,10,10a,12-octahydrotetracen-2-yl]amino}-2-oxoethyl)(tert-butyl)amino]carbonyl}oxy)methyl 3-methylbutanoate], for which the figures for the MIC against Staph. aureus Smith (Table 6) and with E. coli were 1 µg/mL (≈ 1.34 µM) and 32 µg/mL (≈ 43 µM), respectively. For the same molecule, the ED50 with E. coli #311 (setting [6]) was determined as 2.25 mg/kg; in the series on E. coli #311 (setting [4]), 2.25 mg/kg; in the series on E. coli #311 (setting [7]), 46.9 mg/kg; with E. coli #311 (setting [5]), 46.9 mg/kg.
